According to US20060099568A1, “Signals and molecular species involved in senescence” (priority 2002, published 2006):
“Also recorded” adds a separate entry of the source.

What was measured:
[1] = system: cellular cAMP; assay: measurement of cyclic AMP accumulation (cAMP binding assay); assay type: cell-based, human
Procedure: FIG. 9 represents LPA-induced alteration of cellular cAMP content in presenescent and near-senescent fibroblasts. Subconfluent presenescent (passage 8, Pa 8) and near-senescent (passage 24, Pa 24) fibroblasts were serum-starved for 2 days and treated with LPA: A, 1-70 μg/ml LPA for 30 min; B, 30 μg/ml LPA for the indicated times. The level of cAMP in the acid extracts was measured by cAMP binding assay. The data represents an average of triplicate experiments.
Subconfluent near-senescent (passage 26, Pa 26) fibroblasts were serum-starved for 2 days and treated with 30 μg/ml LPA for the indicated times in the absence or presence of 10 μM PKC inhibitor bisindolylmaleiamide (bIM). The level of cAMP in the acid extracts was measured by cAMP binding assay. The data represents an average of triplicate experiments.
Cells grown on a 12 well-plate were serum-starved by incubating with SFM for 2 days. After the cells were equilibrated in the fresh SFM medium for 1 hour, they were treated with LPA as described in the figure. The reaction was terminated by removing the medium and by adding 2.5 M perchloric acid. The acid extract was stored at −20° C. until use. The acid extract was neutralized with 4.2 M KOH and the cAMP content was determined by competitive binding with [^3H]cAMP to the cAMP binding protein, RIα of cAMP-dependent protein kinase, as described by Jang and Juhnn (2001). After the extraction, cells were lyzed with 0.1 N NaOH and analyzed for protein content using the Bradford protein assay reagent. The cAMP content was normalized to the amount of acid-insoluble protein.

[2] = system: ERK1 and ERK2; assay: ERK activation, phospho-ERK Western blot; assay type: cell-based, human
Procedure: Serum-starved presenescent (passage 10, Pa 10) and near-senescent (passage 29, Pa 29) fibroblasts were treated with 30 μg/ml LPA for the indicated times. The level of phospho-ERK in the cytosolic fraction from each cell, as an indication of ERK activation, was measured by Western blot analysis employing anti-phospho-ERK antibody.
The expression levels of signaling proteins were examined by Western blot analysis, as described previously (Yeo et al., 2000a). Total cell lysates were prepared in a lysis buffer containing 50 mM Tris-HCl, pH 7.5, containing 150 mM NaCl, 2 mM EDTA, 1 mM EGTA, 1 mM Na3VO4, 10 mM NaF, 1 mM DTT, 1 mM PMSF, 25 μg/ml leupeptin, 25 μg/ml aprotinin, 5 mM benzamidine, and 1% Nonidet P-40. The protein concentrations of the lysates were determined using a BCA protein assay kit, as described by the protocol supplied by the manufacturer. Cell lysates containing equal amounts of protein were resolved by SDS-polyacrylamide gel electrophoresis and transferred onto Immobilon PVDF membranes. […] To examine the level of phospholipase D 1/2, the immunoprecipitated protein obtained using 10 μl of anti-phospholipase D 1 anti-sera (Box45, ESTP4) was analyzed by Western blot against polyclonal anti-phospholipase D 1 antibodies (1:20 dilution of NC STP4 anti-serum).

[3] = system: human diploid fibroblasts; assay: DNA synthesis, [3H]thymidine incorporation; assay type: cell-based
Procedure: FIG. 5 represents reduction of growth factor-induced thymidine incorporation in near-senescent fibroblasts. […] The amount of [^3H]thymidine incorporated into DNA over 4 hrs was measured as described. The data represents an average of 3 counts in cpm. A representative experiment of the three is presented in A. Fold increase over the untreated control was calculated and plotted in B.
FIG. 18 represents changes in LPA-induced thymidine incorporation and cell proliferation in near-senescent fibroblasts versus presenescent fibroblasts. Subconfluent presenescent (passage 8, Pa 8) and near-senescent (passage 24, Pa 24) fibroblasts were serum-starved for 2 days and treated with LPA (1-70 μg/ml) for 16 hrs. The amount of [^3H]thymidine incorporated into DNA over 4 hrs was measured as described. The data represents an average of 3 counts in cpm in each independent experiments. A representative experiment of the three is presented in A. Converted fold increase over the untreated control was calculated and plotted in B.
Quiescent cells were labeled with [^3H]thymidine (0.5 μCi/ml) for 4 hrs and the […] radioactive thymidine was removed by washing with PBS. DNA was precipitated with 10% TCA and lysed in 0.5N NaOH. The radioactivity in neutralized lysates was counted in a liquid scintillation cocktail.

[4] = system: adenylyl cyclases (ACs); assay: measurement of adenylyl cyclase activity in membranes of LPA-treated cells; assay type: cell-based, human; conditions: 30 μg/ml LPA
Procedure: Subconfluent presenescent (passage 8, Pa 8) and near-senescent (passage 24, Pa 24) fibroblasts were serum-starved for 2 days and treated with 30 μg/ml LPA for the indicated times. The activities of adenylyl cyclase (A) and phosphodiesterase (B) were determined in the fresh membranes and total cell lysates as described in Materials and Methods. The enzyme activities were calculated as pmol/μg/min. The data represents an average of triplicate experiments.
Cells seeded in a 10-cm culture plate were serum-starved and treated with LPA as described in the figure legends. Cells were harvested and homogenized in ice-cold homogenization buffer containing 0.25 M sucrose, 10 mM Tris-HCl, pH 7.5, 10 mM MgCl2, 2 mM EGTA, and protease inhibitors. Homogenates were centrifuged at 20,000×g at 4° C. for 20 min. Pellets were washed twice with the above buffer, resuspended in 10 mM Tris-HCl, pH 7.4, and 10 MM MgCl2, and the adenylyl cyclase assays were performed as described previously (Jang et al. 2001). The membrane proteins (15 μg/ml) were incubated for 10 min at 30° C. in a reaction mixture (100 μl) containing 40 mM Tris, pH 7.4, 0.2 mM EGTA, 100 mM NaCl, 10 mM MgCl2, 0.5 mM ATP, 5 μg/ml phosphocreatine, 5 IU/ml creatine phosphokinase, 10 μM GTP, and 0.5 mM IBMX. The reaction was stopped by adding 2.5 M perchloric acid. The amount of cAMP generated was determined by cAMP binding assay.

lysophosphatidic acid [LPA]
increase of cellular cAMP content ([1]; near-senescent fibroblasts, 30 μg/ml LPA for 60 min): 70-80% | increase of cellular cAMP ([1]; near-senescent fibroblasts, 30 min, LPA 1-70 μg/ml): 31-77% | decrease of cellular cAMP ([1]; presenescent fibroblasts, 30 min, LPA 1-70 μg/ml): 33-43% | level of phospho-ERK ([2]; near-senescent HDF (passage 29), 30 μg/ml LPA): did not increase further | ERK1 and ERK2 activation (phospho-ERK) ([2]; presenescent HDF (passage 10), 30 μg/ml LPA for 10-30 min): stimulated | fold increase of [3H]thymidine incorporation over untreated control, near-senescent vs presenescent ([3]; 50-70 μg/ml LPA): slightly higher | agonist-induced DNA synthesis ([3H]thymidine incorporation) in near-senescent cells vs presenescent ([3]; near-senescent cells (passage 24)): reduced but less so than PDGF; also recorded: reduced | concentration at which increase of [3H]thymidine incorporation is apparent ([3]; presenescent fibroblasts): 10 µg/mL | concentration at which increase of [3H]thymidine incorporation is maximal ([3]; presenescent fibroblasts): 50 to 70 µg/mL | total AC activity ([4]; near-senescent cells): increased | total AC activity ([4]; presenescent cells): reduced time-dependently
